Experimental data: the supplement of paper PMC10307832

Tests used:
Assay in all cases: relative viability (nuclei count vs DMSO), 5 days (fraction); higher = more cells survive
XMD14-99 + Tozasertib = compound: CN1CCN(CC1)C2=CC(=C(C=C2)NC3=NC(=C(S3)C(=O)C4=C(C=CC=C4Cl)Cl)N)OC [XMD14-99] + Cc1cc(Nc2cc(N3CCN(C)CC3)nc(Sc3ccc(NC(=O)C4CC4)cc3)n2)n[nH]1 [Tozasertib] (partner 0.1 µM)
In short: (§1)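 Nuclei were stained with Hoechst during a one-step fixation (final 0.05% Triton X-100, 1% formaldehyde, 1 ug/ml Hoechst) carried out 5 days after dosing, then counted on 4× images. The cells, lung cancer lines in 1536-well plates, had been dosed by pin tool the day after seeding with one drug alone or a fixed anchor-drug dose plus five library-drug doses (not always all listed) in √10 steps. Relative viability is the nuclei count in treated wells divided by that in vehicle wells, and each value is the median of duplicate plates.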

AZD1208 + Navitoclax = compound: N[C@@H]1CCCN(c2c(/C=C3\SC(=O)NC3=O)cccc2-c2ccccc2)C1 [AZD1208] + CC1(C)CCC(c2ccc(Cl)cc2)=C(CN2CCN(c3ccc(C(=O)NS(=O)(=O)c4ccc(N[C@H](CCN5CCOCC5)CSc5ccccc5)c(S(=O)(=O)C(F)(F)F)c4)cc3)CC2)C1 [Navitoclax] (partner 0.5 µM)
In short: as §1

AZD1208 + Crizotinib = compound: N[C@@H]1CCCN(c2c(/C=C3\SC(=O)NC3=O)cccc2-c2ccccc2)C1 [AZD1208] + C[C@@H](Oc1cc(-c2cnn(C3CCNCC3)c2)cnc1N)c1c(Cl)ccc(F)c1Cl [Crizotinib] (partner 1 µM)
In short: as §1

AZD1208 + Pemetrexed = compound: N[C@@H]1CCCN(c2c(/C=C3\SC(=O)NC3=O)cccc2-c2ccccc2)C1 [AZD1208] + Nc1nc2[nH]cc(CCc3ccc(C(=O)N[C@@H](CCC(=O)O)C(=O)O)cc3)c2c(=O)[nH]1 [Pemetrexed] (partner 0.2 µM)
In short: as §1

Cell Line	relative viability (XMD14-99 + Tozasertib; first compound 0.08 µM)	relative viability (XMD14-99 + Tozasertib; first compound 0.8 µM)	relative viability (XMD14-99 + Tozasertib; first compound 2.53 µM)	relative viability (XMD14-99 + Tozasertib; first compound 8 µM)	relative viability (AZD1208 + Navitoclax; first compound 0.08 µM)	relative viability (AZD1208 + Navitoclax; first compound 0.253 µM)	relative viability (AZD1208 + Navitoclax; first compound 0.8 µM)	relative viability (AZD1208 + Navitoclax; first compound 2.53 µM)	relative viability (AZD1208 + Navitoclax; first compound 8 µM)	relative viability (AZD1208 + Crizotinib; first compound 0.08 µM)	relative viability (AZD1208 + Crizotinib; first compound 0.253 µM)	relative viability (AZD1208 + Crizotinib; first compound 0.8 µM)	relative viability (AZD1208 + Crizotinib; first compound 2.53 µM)	relative viability (AZD1208 + Crizotinib; first compound 8 µM)	relative viability (AZD1208 + Pemetrexed; first compound 0.08 µM)	relative viability (AZD1208 + Pemetrexed; first compound 0.253 µM)	relative viability (AZD1208 + Pemetrexed; first compound 0.8 µM)	relative viability (AZD1208 + Pemetrexed; first compound 2.53 µM)	relative viability (AZD1208 + Pemetrexed; first compound 8 µM)
NCI-H647	0.203	0.375	0.218	0.114	0.934	0.974	1.14	1.01	0.801	0.953	1.09	0.894	0.906	0.757	0.19	0.195	0.17	0.188	0.165
NCI-H441	0.693	0.599	0.554	0.354	0.936	0.698	0.65	0.289	0.393	0.73	0.674	0.667	0.526	0.42	0.234	0.263	0.237	0.263	0.256
NCI-H23	0.453	0.352	0.279	0.263	0.843	1.18	0.721	0.712	0.646	0.377	0.467	0.372	0.426	0.34	0.604	0.698	0.632	0.704	0.703
SK-MES-1	0.925	0.861	0.761	0.5	1.08	1.41	1.08	1.03	0.926	1.07	0.944	0.909	0.974	0.78	0.993	0.999	0.956	0.842	0.864
NCI-H2170	0.702	0.667	0.696	0.575	0.505	0.664	0.418	0.521	0.251	1.18	1.2	1.01	1.12	0.836	0.244	0.289	0.688	0.275	0.268
NCI-H2087	0.225	0.253	0.228	0.169	1.05	1.07	1.03	0.91	0.836	1.06	1.13	0.812	0.993	0.979	0.664	0.713	0.475	0.649	0.627
NCI-H838	0.265	0.24	0.269	0.194	1.07	1.18	1.1	1.12	1.01	0.967	0.806	0.892	0.843	0.758	0.239	0.26	0.243	0.26	0.228
NCI-H460	0.408	0.376	0.45	0.188	1.05	1.34	1.17	1.26	1.16	0.912	1.17	0.854	0.709	0.871	0.065	0.0614	0.0662	0.0615	0.055
LOU-NH91	0.709	0.631	0.645	0.533	0.689	0.709	0.648	0.638	0.577	0.728	0.728	0.727	0.693	0.721	0.357	0.409	0.421	0.357	0.434
NCI-H322M	0.501	0.488	0.558	0.414	1.1	1.27	1.2	1.13	1.2	1.14	0.972	0.975	0.607	0.974	0.565	0.654	–	0.622	0.608
NCI-H520	0.432	0.438	0.363	0.338	0.973	1.22	0.991	0.838	0.767	0.77	0.833	0.711	0.582	0.439	0.685	0.703	0.555	0.524	0.446
NCI-H1734	0.288	0.244	0.248	0.227	0.753	0.932	0.714	0.724	0.582	0.683	0.649	0.504	0.528	0.464	0.404	0.409	0.442	0.427	0.435
LXF-289	0.183	0.205	0.196	0.171	0.955	1.01	0.932	0.978	1.03	0.853	0.894	0.8	0.814	0.928	0.887	1.01	0.924	0.634	1.02
H3255	0.721	0.606	0.563	0.454	0.511	0.546	0.455	0.462	0.472	0.897	0.854	0.916	0.828	0.774	0.591	0.577	0.597	0.524	0.598
201T	0.899	0.915	0.886	0.669	1.24	1.23	1.25	1.24	1.31	1	1.08	1.06	1.11	1.14	0.346	0.339	0.305	0.269	0.327
NCI-H2228	0.234	0.258	0.187	0.148	0.782	0.766	0.713	–	0.51	0.327	0.501	0.399	–	0.427	0.328	0.368	0.357	0.371	0.344
HOP-62	0.375	0.341	0.351	0.241	1.05	0.886	1.05	0.969	1.07	0.991	0.869	0.895	0.883	0.969	0.298	0.345	0.28	0.289	0.269
